Reference: US20230339978A1, “COMPOUNDS FOR PREVENTION OR TREATMENT OF NEURODEGENERATIVE DISORDERS” (1ST Biotherapeutics, Inc., priority 2020, published 2023)

Assays:
[1] = biological target: GST-tagged recombinant human RIPK2 (Homo sapiens (Human), UniProt O43353); assay: RIP2 Kinase Assay (ADP-Glo); type: biochemical; details: 25 µM ATP, MBP substrate, 30° C. 60 minutes
Protocol: GST-tagged recombinant human RIPK2(25 ng) is incubated with 5 µL of compounds (0.5% DMSO), 5 µL of MBP (0.5 µg/µl) and 5 µL of ATP (25 µM) in buffer (40 mM Tris, 7.5; 20 mM MgCl2; 0.1 mg/ml BSA; 50 µM DTT). The assay was started by incubating the reaction mixture in a 96-well plate at 30° C. for 60 minutes. After the incubation, 25 µL ADP-Glo reagent was added, and the reaction was incubated at 30° C. for 40 minutes to stop the reaction and degrade residual ATP. The ADP product was then converted to ATP by adding 50 µL per well of detection reagent. Luminescence was detected after 30 minutes room temperature incubation with the Molecular device I3X plate reader. The IC50 values were calculated from a series of percent inhibition values determined at a range of inhibitor concentration using software routines as implemented in the GraphPad Prism 7 software or SigmaPlot 13.0.

[2] = biological target: His-tagged recombinant human ABL1 (Homo sapiens (Human), UniProt P00519); details: read-out: c-Abl IC50; 25 µM ATP, Abltide substrate, 30° C. 30-min
Sequence of His-tagged recombinant human ABL1 (P00519 whole entry): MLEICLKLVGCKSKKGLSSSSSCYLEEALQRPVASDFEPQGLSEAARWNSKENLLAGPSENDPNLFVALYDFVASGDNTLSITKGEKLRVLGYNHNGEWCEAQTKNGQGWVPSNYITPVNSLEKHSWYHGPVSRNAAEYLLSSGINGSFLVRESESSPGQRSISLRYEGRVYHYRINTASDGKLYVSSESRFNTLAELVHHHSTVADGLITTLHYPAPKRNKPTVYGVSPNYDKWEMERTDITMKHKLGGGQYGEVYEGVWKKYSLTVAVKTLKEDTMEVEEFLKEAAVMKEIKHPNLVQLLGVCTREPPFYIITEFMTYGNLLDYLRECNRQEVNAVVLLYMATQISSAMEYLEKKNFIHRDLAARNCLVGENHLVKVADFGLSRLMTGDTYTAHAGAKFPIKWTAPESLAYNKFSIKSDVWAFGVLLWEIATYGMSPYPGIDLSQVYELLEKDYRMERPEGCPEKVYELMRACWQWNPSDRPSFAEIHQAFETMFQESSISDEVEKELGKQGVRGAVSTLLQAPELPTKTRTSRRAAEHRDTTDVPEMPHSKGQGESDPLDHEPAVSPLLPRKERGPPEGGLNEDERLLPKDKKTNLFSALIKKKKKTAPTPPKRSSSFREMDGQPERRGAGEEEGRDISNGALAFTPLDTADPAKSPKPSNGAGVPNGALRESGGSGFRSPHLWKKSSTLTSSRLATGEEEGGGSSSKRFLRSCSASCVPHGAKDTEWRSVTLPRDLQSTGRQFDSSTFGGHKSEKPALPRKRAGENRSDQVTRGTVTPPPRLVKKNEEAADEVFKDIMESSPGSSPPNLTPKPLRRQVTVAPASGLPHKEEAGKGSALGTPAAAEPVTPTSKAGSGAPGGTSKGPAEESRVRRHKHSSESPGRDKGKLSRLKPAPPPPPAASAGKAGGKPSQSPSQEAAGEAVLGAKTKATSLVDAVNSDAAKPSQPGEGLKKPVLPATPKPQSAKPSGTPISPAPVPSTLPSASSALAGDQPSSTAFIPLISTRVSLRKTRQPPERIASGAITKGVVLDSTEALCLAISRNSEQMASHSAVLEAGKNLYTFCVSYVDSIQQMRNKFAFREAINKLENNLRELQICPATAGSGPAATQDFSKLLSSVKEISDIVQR
Protocol: ADP-Glo assay kit was purchased from Promega. Magnesium chloride (MgCl2), bovine serum albumin (BSA), ethylene glycol-bis(β-aminoethyl ether)-N,N,N′,N′-tetraacetic acid (EGTA), tween-20, 1,4-dithiothreitol (DTT) and dimethyl sulfoxide (DMSO) were purchased from Sigma-Aldrich. HEPES buffer was purchased from Gibco. ABL1 kinase and Abltide were purchased from Signalchem.
c-Abl kinase activity was measured by Promega’s ADP-Glo ® Assay. In this assay, His-tagged recombinant human ABL1 (0.25 ng/µl) is incubated with 5 µL of compounds (0.5% DMSO), 5 µL of Abltide (0.01 µg/µl) and 5 µL of ATP (25 µM) in buffer (50 mM HEPES,7.5; 10 mM MgCl2; 1 mM EGTA; 0.05% BSA; 0.01% Tween-20; 2 mM DTT.). The assay was started by incubating the reaction mixture in a 96-well plate at 30° C. for 30-min. After the incubation, 25 µL ADP-Glo reagent was added and the reaction was incubated at room temperature for 40-min to stop the reaction and degrade residual ATP. The ADP product was then converted to ATP by adding 50 µL per well of detection reagent. Luminescence was detected after 30-min room temperature incubation with the Molecular device I3X plate reader. The IC50 values were calculated from a series of percent inhibition values determined at a range of inhibitor concentration using software routines as implemented in the GraphPad Prism 7 software and Sigma Plot 13.0.

[3] = system: IL-6 secretion in BV-2 cell; assay: IL-6 Secretion in BV-2 Cell (L18-MDP stimulated, ELISA); type: cell-based; details: BV-2 mouse microglia cells, 10 µg/ml L18-MDP, 24 hr
Protocol: IL-6 Secretion in BV-2 Cell
BV-2 mouse microglia cells were kindly provided from Dr. Bae in Korea Institute of Science and Technology (KIST). BV-2 cells were thawed and suspended in Dulbecco’s modified eagle medium (DMEM) supplemented with 10% fetal bovine serum (FBS) and 1% Penicillin/Streptomycin. Cells were seeded into 96 well plates at 2X10^4 cells/well and allowed to attach for 24 hr. On the day of the experiment, various concentration of compounds were treated, and cells were stimulated with 10 µg/ml L18-MDP. After 24 hr incubation, supernatant was collected for cytokine assay.
Absorbance at 450 nm was measured using SpectraMax I3X microplate reader (Molecular Device). Values of media-only wells were subtracted and % inhibition for each compound concentration relative to the DMSO/L18-MDP-treated controls (100%) was calculated.

Sequence of GST-tagged recombinant human RIPK2 (O43353 whole entry): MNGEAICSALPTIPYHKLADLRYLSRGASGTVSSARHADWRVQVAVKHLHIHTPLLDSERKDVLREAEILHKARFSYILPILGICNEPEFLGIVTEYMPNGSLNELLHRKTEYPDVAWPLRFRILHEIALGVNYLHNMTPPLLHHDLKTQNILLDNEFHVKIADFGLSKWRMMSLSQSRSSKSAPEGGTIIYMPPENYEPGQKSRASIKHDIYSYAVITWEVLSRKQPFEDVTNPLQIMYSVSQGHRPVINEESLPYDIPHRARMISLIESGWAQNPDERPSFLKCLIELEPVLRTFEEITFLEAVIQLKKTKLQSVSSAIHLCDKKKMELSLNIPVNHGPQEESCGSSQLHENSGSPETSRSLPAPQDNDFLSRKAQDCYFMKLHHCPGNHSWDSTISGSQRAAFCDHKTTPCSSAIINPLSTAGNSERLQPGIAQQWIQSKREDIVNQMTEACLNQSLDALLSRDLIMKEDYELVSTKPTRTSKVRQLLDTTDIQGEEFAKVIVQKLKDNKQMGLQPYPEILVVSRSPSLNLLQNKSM

Q: With `O=C(Nc1cc2cc(-c3cnc4[nH]cc(Cl)c4c3)ccn2n1)[C@@H]1C[C@@H]1F` [Example 11, (1S,2S)-N-(5-(3-chloro-1H-pyrrolo[2,3-b]pyridin-5-yl)pyrazolo[1,5-a]pyridin-2-yl)-2-fluorocyclopropane-1-carboxamide] as the compound, how does the IC50 [1] read?
A: 33.4 nM

Q: And the IC50 [2]?
A: 3.2 nM

Q: And the IC50 [3]?
A: 654 nM

Q: How did the IC50 [1] turn out when `Cc1c(-c2ccn3nc(NC(=O)[C@H]4C[C@@H]4F)cc3c2)cnc2[nH]ccc12` [Example 21, (1R,2S)-2-fluoro-N-(5-(4-methyl-1H-pyrrolo[2,3-b]pyridin-5-yl)pyrazolo[1,5-a]pyridin-2-yl)cyclopropane-1-carboxamide] was run?
A: 8.25 nM

Q: What about the IC50 [2] of the same compound?
A: 3.3 nM

Q: And the IC50 [3]?
A: 61.4 nM

Q: Which results are given for `O=C(Nc1cc2cc(-c3cnc4[nH]cc(Cl)c4c3Cl)ccn2n1)[C@@H]1C[C@@H]1F` [Example 29, (1S,2S)-N-(5-(3,4-dichloro-1H-pyrrolo[2,3-b]pyridin-5-yl)pyrazolo[1,5-a]pyridin-2-yl)-2-fluorocyclopropane-1-carboxamide]?
A: IC50 [1]: 15.4 nM; IC50 [2]: 4.3 nM; IC50 [3]: 177 nM

Q: What does the source list for `CC(C)c1c(-c2ccn3nc(NC(=O)[C@@H]4C[C@@H]4F)cc3c2)cnc2[nH]ccc12` [Example 15, (1S,2S)-2-fluoro-N-(5-(4-isopropyl-1H-pyrrolo[2,3-b]pyridin-5-yl)pyrazolo[1,5-a]pyridin-2-yl)cyclopropane-1-carboxamide]?
A: IC50 [1]: 828 nM; IC50 [2]: 159 nM

Q: How did the IC50 [1] turn out when `O=C(Nc1cc2cc(-c3cnc4[nH]cc(F)c4c3Cl)ccn2n1)[C@@H]1C[C@@H]1F` [Example 30, (1S,2S)-N-(5-(4-chloro-3-fluoro-1H-pyrrolo[2,3-b]pyridin-5-yl)pyrazolo[1,5-a]pyridin-2-yl)-2-fluorocyclopropane-1-carboxamide] was run?
A: 10.2 nM

Q: What about the IC50 [2] of the same compound?
A: 7.2 nM

Q: And the IC50 [3]?
A: 107 nM

Q: Which IC50 [1] does the source give for `CSc1c(-c2ccn3nc(NC(=O)[C@@H]4C[C@@H]4F)cc3c2)cnc2[nH]ccc12` [Example 14, (1S,2S)-2-fluoro-N-(5-(4-(methylthio)-1H-pyrrolo[2,3-b]pyridin-5-yl)pyrazolo[1,5-a]pyridin-2-yl)cyclopropane-1-carboxamide] here?
A: 195 nM

Q: And the IC50 [2]?
A: 12.2 nM

Q: For `O=C(Nc1cc2cc(-c3cnc4[nH]ccc4c3Cl)ccn2n1)[C@@H]1C[C@H]1F` [Example 26, (1S,2R)-N-(5-(4-chloro-1H-pyrrolo[2,3-b]pyridin-5-yl)pyrazolo[1,5-a]pyridin-2-yl)-2-fluorocyclopropane-1-carboxamide], which IC50 [1] is on record?
A: 16.1 nM

Q: What about the IC50 [2] of the same compound?
A: 19.4 nM

Q: How did the IC50 [1] turn out when `O=C(Nc1cc2cc(-c3cnc4[nH]ccc4c3Cl)ccn2n1)C1CC1` [Example 23, N-(5-(4-chloro-1H-pyrrolo[2,3-b]pyridin-5-yl)pyrazolo[1,5-a]pyridin-2-yl)cyclopropanecarboxamide] was run?
A: 19.9 nM

Q: What about the IC50 [2] of the same compound?
A: 9.2 nM

Q: How did the IC50 [1] turn out when `O=C(Nc1cc2cc(-c3cnc4[nH]ccc4c3C3CC3)ccn2n1)[C@@H]1C[C@@H]1F` [Example 16, (1S,2S)-N-(5-(4-cyclopropyl-1 H-pyrrolo[2,3-b]pyridin-5-yl)pyrazolo[1,5-a]pyridin-2-yl)-2-fluorocyclopropane-1-carboxamide] was run?
A: 204 nM

Q: And the IC50 [2]?
A: 13 nM

Q: What does the source list for `Cc1c(-c2ccn3nc(NC(=O)[C@@H]4C[C@H]4F)cc3c2)cnc2[nH]ccc12` [Example 22, (1S,2R)-2-fluoro-N-(5-(4-methyl-1H-pyrrolo[2,3-b]pyridin-5-yl)pyrazolo[1,5-a]pyridin-2-yl)cyclopropane-1-carboxamide]?
A: IC50 [1]: 15.9 nM; IC50 [2]: 4.2 nM; IC50 [3]: 57.1 nM

Q: How did the IC50 [1] turn out when `Cc1cc2cc(-c3ccn4nc(NC(=O)[C@@H]5C[C@@H]5F)cc4c3)cnc2[nH]1` [Example 8, (1S,2S)-2-fluoro-N-(5-(2-methyl-1H-pyrrolo[2,3-b]pyridin-5-yl)pyrazolo[1,5-a]pyridin-2-yl)cyclopropane-1-carboxamide] was run?
A: 84.3 nM

Q: What about the IC50 [2] of the same compound?
A: 4 nM

Q: What about the IC50 [3] of the same compound?
A: 625 nM

Q: With `N#Cc1c(-c2ccn3nc(NC(=O)[C@@H]4C[C@@H]4F)cc3c2)cnc2[nH]ccc12` [Example 17, (1S,2S)-N-(5-(4-cyano-1H-pyrrolo[2,3-b]pyridin-5-yl)pyrazolo[1,5-a]pyridin-2-yl)-2-fluorocyclopropane-1-carboxamide] as the compound, how does the IC50 [1] read?
A: 70.2 nM

Q: What about the IC50 [2] of the same compound?
A: 20.2 nM

Q: How did the IC50 [1] turn out when `Cc1c(-c2ccn3nc(NC(=O)[C@@H]4C[C@@H]4F)cc3c2)cnc2[nH]cc(Cl)c12` [Example 25, (1S,2S)-N-(5-(3-chloro-4-methyl-1H-pyrrolo[2,3-b]pyridin-5-yl)pyrazolo[1,5-a]pyridin-2-yl)-2-fluorocyclopropane-1-carboxamide] was run?
A: 32.2 nM

Q: What about the IC50 [2] of the same compound?
A: 1.7 nM

Q: `Cc1nc2[nH]ccc2cc1-c1ccn2nc(NC(=O)[C@@H]3C[C@@H]3F)cc2c1` [Example 3, (1S,2S)-2-fluoro-N-(5-(6-methyl-1 H-pyrrolo[2,3-b]pyridin-5-yl)pyrazolo[1,5-a]pyridin-2-yl)cyclopropane-1-carboxamide] was tested. Which IC50 [1] did it give?
A: 25 nM

Q: And the IC50 [2]?
A: 0.7 nM

Q: And the IC50 [3]?
A: 332 nM

Q: How did the IC50 [1] turn out when `CCc1c(-c2ccn3nc(NC(=O)[C@@H]4C[C@@H]4F)cc3c2)cnc2[nH]ccc12` [Example 13, (1S,2S)-N-(5-(4-ethyl-1H-pyrrolo[2,3-b]pyridin-5-yl)pyrazolo[1,5-a]pyridin-2-yl)-2-fluorocyclopropane-1-carboxamide] was run?
A: 129 nM

Q: And the IC50 [2]?
A: 12.3 nM

Q: With `Cc1c(-c2ccn3nc(NC(=O)[C@H]4C[C@H]4F)cc3c2)cnc2[nH]ccc12` [Example 20, (1R,2R)-2-fluoro-N-(5-(4-methyl-1H-pyrrolo[2,3-b]pyridin-5-yl)pyrazolo[1,5-a]pyridin-2-yl)cyclopropane-1-carboxamide] as the compound, how does the IC50 [1] read?
A: 8.37 nM

Q: What about the IC50 [2] of the same compound?
A: 3.1 nM

Q: And the IC50 [3]?
A: 65.5 nM

Q: Which results are given for `O=C(Nc1cc2cc(-c3cc4cc[nH]c4nc3Cl)ccn2n1)[C@@H]1C[C@@H]1F` [Example 4, (1S,2S)-N-(5-(6-chloro-1H-pyrrolo[2,3-b]pyridin-5-yl)pyrazolo[1,5-a]pyridin-2-yl)-2-fluorocyclopropane-1-carboxamide]?
A: IC50 [1]: 13.9 nM; IC50 [2]: 1.2 nM; IC50 [3]: 351 nM

Q: With `Cc1c(-c2ccn3nc(NC(=O)[C@@H]4C[C@@H]4F)cc3c2)cnc2[nH]cc(F)c12` [Example 24, (1S,2S)-2-fluoro-N-(5-(3-fluoro-4-methyl-1H-pyrrolo[2,3-b]pyridin-5-yl)pyrazolo[1,5-a]pyridin-2-yl)cyclopropane-1-carboxamide] as the compound, how does the IC50 [1] read?
A: 14.9 nM

Q: And the IC50 [2]?
A: 2.9 nM

Q: What about the IC50 [3] of the same compound?
A: 75.7 nM

Q: Which IC50 [1] does the source give for `Cc1c[nH]c2ncc(-c3ccn4nc(NC(=O)[C@@H]5C[C@@H]5F)cc4c3)cc12` [Example 12, (1S,2S)-2-fluoro-N-(5-(3-methyl-1H-pyrrolo[2,3-b]pyridin-5-yl)pyrazolo[1,5-a]pyridin-2-yl)cyclopropane-1-carboxamide] here?
A: 88.6 nM

Q: And the IC50 [2]?
A: 2.5 nM

Q: What about the IC50 [3] of the same compound?
A: 687 nM

Q: `O=C(Nc1cc2cc(-c3cnc4[nH]ccc4c3Cl)ccn2n1)[C@H]1C[C@@H]1F` [Example 27, (1R,2S)-N-(5-(4-chloro-1H-pyrrolo[2,3-b]pyridin-5-yl)pyrazolo[1,5-a]pyridin-2-yl)-2-fluorocyclopropane-1-carboxamide] was tested. Which IC50 [1] did it give?
A: 15.1 nM

Q: What about the IC50 [2] of the same compound?
A: 12.4 nM

Q: And the IC50 [3]?
A: 162 nM

Q: Which results are given for `Cc1c(-c2ccn3nc(NC(=O)[C@@H]4C[C@@H]4F)cc3c2)cnc2[nH]ccc12` [Example 9, (1S,2S)-2-fluoro-N-(5-(4-methyl-1H-pyrrolo[2,3-b]pyridin-5-yl)pyrazolo[1,5-a]pyridin-2-yl)cyclopropane-1-carboxamide]?
A: IC50 [1]: 8.77 nM; IC50 [2]: 3.1 nM; IC50 [3]: 101 nM

Q: What does the source list for `O=C(Nc1cc2cc(-c3cnc4[nH]ccc4c3Cl)ccn2n1)[C@H]1C[C@H]1F` [Example 28, (1R,2R)-N-(5-(4-chloro-1H-pyrrolo[2,3-b]pyridin-5-yl)pyrazolo[1,5-a]pyridin-2-yl)-2-fluorocyclopropane-1-carboxamide]?
A: IC50 [1]: 21.5 nM; IC50 [2]: 13.9 nM

Q: What does the source list for `O=C(Nc1cc2cc(-c3cnc4[nH]c(Cl)cc4c3)ccn2n1)[C@@H]1C[C@@H]1F` [Example 18, (1S,2S)-N-(5-(2-chloro-1H-pyrrolo[2,3-b]pyridin-5-yl)pyrazolo[1,5-a]pyridin-2-yl)-2-fluorocyclopropane-1-carboxamide]?
A: IC50 [1]: 30.5 nM; IC50 [2]: 3.6 nM

Q: How did the IC50 [1] turn out when `COc1c(-c2ccn3nc(NC(=O)[C@@H]4C[C@@H]4F)cc3c2)cnc2[nH]ccc12` [Example 6, (1S,2S)-2-fluoro-N-(5-(4-methoxy-1H-pyrrolo[2,3-b]pyridin-5-yl)pyrazolo[1,5-a]pyridin-2-yl)cyclopropane-1-carboxamide] was run?
A: 168 nM

Q: And the IC50 [2]?
A: 9 nM

Q: And the IC50 [3]?
A: 806 nM

Q: With `O=C(Nc1cc2cc(-c3cnc4[nH]cc(F)c4c3)ccn2n1)[C@@H]1C[C@@H]1F` [Example 7, (1S,2S)-2-fluoro-N-(5-(3-fluoro-1 H-pyrrolo[2,3-b]pyridin-5-yl)pyrazolo[1,5-a]pyridin-2-yl)cyclopropane-1-carboxamide] as the compound, how does the IC50 [1] read?
A: 24.3 nM

Q: And the IC50 [2]?
A: 3.6 nM

Q: What about the IC50 [3] of the same compound?
A: 732 nM

Q: For `O=C(Nc1cc2cc(-c3cnc4[nH]ccc4c3F)ccn2n1)[C@@H]1C[C@@H]1F` [Example 5, (1 S,2S)-2-fluoro-N-(5-(4-fluoro-1 H-pyrrolo[2,3-b]pyridin-5-yl)pyrazolo[1,5-a]pyridin-2-yl)cyclopropane-1-carboxamide], which IC50 [1] is on record?
A: 48.4 nM

Q: What about the IC50 [2] of the same compound?
A: 11.2 nM

Q: And the IC50 [3]?
A: 600 nM
